Source: US20170304466A1, “AAV-Based Gene Therapy” (Arthrogen B.V., priority 2014, published 2017)
Where two headings read alike, the source gives them in different places.

Experiments:
[1] = system: spleen; experiment: Spleen size after triamcinolone in arthritic mice; assay type: in vivo
Procedure: FIG. 5: Effect of triamcinolone on spleen size and cell populations in different tissues. Arthritis was induced in several groups (n=5 per group), triamcinolone (5 mg/kg) or saline as control was administered intramuscularly on day 22 (2 days before vector administration). […]
Immunization, intra-articular injections and in vivo imaging were performed under isoflurane anaesthesia (3% isoflurane and oxygen). At the end of the experiments, animals were sacrificed by cardiac puncture under isoflurane anaesthesia, followed by cervical dislocation, after which hind paws, blood, lymph nodes and spleen were collected. The studies were reviewed and approved by the animal care and use committee of the University of Amsterdam (Amsterdam, The Netherlands; Permit Numbers: ART 102881, ART 102656, ART 102793, ART 102948, and ART 103021) and carried out in strict accordance with the recommendations in the Dutch Law on Animal Welfare (Wet op Dierproeven). Animals were maintained under pathogen-free conditions in the animal facility of the University of Amsterdam.

[2] = system: air pouch membrane; experiment: Luciferase expression in air pouch synovial inflammation (APSI) model; assay type: in vivo, mice; conditions: triamcinolone 5 mg/kg i.m. on d9, vector 3.16e11 vg on d11; assay d30
Procedure: Air pouches were formed as previously described (O'Boyle et al. (2009) FASEB J. 23 (11): 3906-3916). Briefly, 3 mls of air was injected subcutaneously into the back of each animal. The air pouches were kept inflated by re-injection of air as necessary. rAAV5.CMV.Fluc vector (3.16e11 vg) was administered into the pouch in a volume of 1 ml on d0, d11, or d18 post air pouch formation. For triamcinolone treated animals, triamcinolone was administered (5 mg/kg) by i.m. injection 2 days prior to vector administration on d11. On d30, mice were sacrificed and air pouch membrane was removed and snap frozen. Frozen air pouch tissue was homogenized in passive lysis buffer (Promega) and luciferase was measured by standard luciferase assay (Promega).
The air pouch synovial inflammation (APSI) model was initially developed as a way to model human synovium in a mouse. It involves the injection of air under the skin on the back of a mouse. After 6-7 days, a lining membrane will form around this air pouch. This lining is very similar to the synovial lining that forms around the joint cavity, consisting primarily of fibroblast like cells and macrophages. […] We hypothesized that perhaps the macrophages lining the air pouch membrane were inhibiting the transduction of the vector (similar to what we have observed in intra-articular injected vector). […]

[3] = system: healthy mice; experiment: Intra-articular rAAV2 luciferase expression, in vivo imaging in healthy mice; conditions: AAV2-CMV-Fluc 1.26e10 vg/joint, compared with vector alone, up to week 4
Procedure: (§1) In brief, the plasmid encodes the Fluc gene under the control of the CMV promoter and a human growth hormone polyadenylation signal. […] The genome containing vector and empty AAV capsid particles were purified by combined chromatography and cesium chloride density gradient centrifugation. […] Vector titers were determined by qPCR and expressed as vector genomes/ml (vg/ml).
Luciferase expression was measured at different time points after vector administration, from day 3 up till 6 months in different experiments. D-luciferin potassium-salt substrate (Caliper Life Sciences, Hopkinton, Mass., USA) was injected intraperitoneally (150 mg/kg of body weight, in a volume of approximately 200 μl). Photon counts were acquired 10 minutes after substrate administration for 5 minutes using a cooled charge-coupled device (CCD) camera system (Photon Imager, Biospace Lab, Paris, France). […] Image processing and signal intensity quantification and analysis were performed using M3 Vision (Biospace Lab). […] The number of photons emitted per second per square centimetre per steradian was calculated as a measure of luciferase activity.
To test this hypothesis, we performed an experiment were we evaluated if triamcinolone and empty capsid could enhance gene expression from a serotype that is very different from AAV5, that being AAV2. […] Luciferase expression was monitored by live animal IVIS imaging.

[4] = system: macrophages (F4/80+, CD68+); experiment: FLOW cytometry of macrophages in spleen and synovium of arthritic mice; assay type: in vivo; conditions: 48 hrs after triamcinolone 5 mg/kg i.m.
Procedure: Macrophages in spleen and synovium were analyzed by FLOW cytometry. Briefly, synovial cells were extracted by scraping cells from the joint followed by digestion with Liberase/DNase for 30 min at 37° C. Cells were then washed (PBS/EDTA) and passed through a cell strainer. Synovial cells were centrifuged (1400 rpm, 5 min, 4° C.) and resuspended in FACS buffer (PBS+1% BSA). Due to the low number of cells in the synovium, all animals from each group were pooled. Spleen cells were isolated by mechanical disruption and flushing cells through a cell strainer. Red blood cells were lysed by addition of RBC lysis buffer (Life Technologies), followed by 10 min incubation on ice. Cells were centrifuged and resuspended in FACS buffer. Cells (pooled synovium or splenocytes (1e6 cells) were blocked with 5% normal mouse serum (Sanquin) and stained with F4/80-APC and CD68-FITC labeled antibodies (BD Biosciences). Data was acquired on a BD Canto2 and was analyzed using FlowJo software (FLOWJO LLC, Ashland Oreg.)
To further investigate the mechanism of action behind the effect of triamcinolone on transgene expression, an ex vivo analysis was carried out on synovial tissue and splenocytes to assess the effect on the numbers and activity of macrophages and other cell types. […]

[5] = system: healthy mice; experiment: Intra-articular rAAV5 luciferase expression, in vivo imaging in healthy mice; conditions: AAV5-CMV-Fluc 1.26e10 vg/joint, compared with vector alone, up to week 8
Procedure: as §1
Intra-articular rAAV5 expression was investigated in male DBA mice (8-12 week old; Harlan Sprague Dawley, Horst, The Netherlands) in 5 animal experiments. Mice were injected with rAAV5.CMV.Fluc in both knee joints (with or without injection of ankle joints) and monitored periodically for luciferase expression (from 5 days up till 6 months). […] Empty capsids were co-administered with the genome containing particles in several groups in a 5:1 or 20:1 ratio (ratio expressed as empty capsids to genome containing vectors). […]
(§2) Luciferase expression was measured at different time points after vector administration, from day 3 up till 6 months in different experiments. […] Image processing and signal intensity quantification and analysis were performed using M3 Vision (Biospace Lab). […] The number of photons emitted per second per square centimetre per steradian was calculated as a measure of luciferase activity.

[6] = system: mice with CIA; experiment: Arthritis activity clinical score in CIA mice; assay type: in vivo
Procedure: Collagen induced arthritis (CIA) was induced by means of an intradermal injection of 100 μl collagen type II (2 mg/ml), diluted 1:1 in CFA (mineral oil and heat-killed M. Tuberculosis 2 mg/ml) (Chondrex Inc., Redmond, Wash., USA). On day 21 a booster injection was administered intraperitoneally containing 100 μg collagen type II dissolved in 100 μl NaCl.
Arthritis activity was scored 3-weekly from day 18 on with a semi-quantitative scoring system, each mouse paw was analyzed separately (0—normal; 1—swelling and/or erythema of 1 joint; 2—swelling in multiple joints; 3—swelling of all joints; 4—swelling of whole paw and at least one of the following symptoms: ankylosis, loss of function).

[7] = system: mice with CIA; assay type: in vivo
Procedure: In brief, the plasmid encodes the Fluc gene under the control of the CMV promoter and a human growth hormone polyadenylation signal. The transgene cassette is flanked by AAV-2 inverted terminal repeats and is packaged in capsid from AAV5.[Gao G P et al; PNAS 2002; 11854] The genome containing vector and empty AAV capsid particles were purified by combined chromatography and cesium chloride density gradient centrifugation. […] Vector titers were determined by qPCR and expressed as vector genomes/ml (vg/ml).
Intra-articular rAAV5 expression was investigated in male DBA mice (8-12 week old; Harlan Sprague Dawley, Horst, The Netherlands) in 5 animal experiments. Mice were injected with rAAV5.CMV.Fluc in both knee joints (with or without injection of ankle joints) and monitored periodically for luciferase expression (from 5 days up till 6 months). For animals without arthritis the vector was administered on day 1, in arthritic animals the vector was injected on day 17 or 24 after immunization, at the onset of disease. Animals received between 1.26e10 and 1.5e10 vg per knee joint (in a volume of 5 μl) and 0.75e10 vg per ankle joint (in a volume of 2.5 μl). Empty capsids were co-administered with the genome containing particles in several groups in a 5:1 or 20:1 ratio (ratio expressed as empty capsids to genome containing vectors). Groups consisted of 5 to 18 animals.
Two days prior to vector administration, triamcinolone was administered intra-muscularly (i.m.), similar to the use in RA patients. […] Taking into account the faster metabolic rate in mice (factor 12.5), a dose of 5 mg/kg bodyweight was used, administered in a volume of 50 μl. Control groups received an i.m. injection with 50 μl NaCl. […]
as §2
Luminescence over time was investigated using generalized estimating equations (GEE) to allow for longitudinal analysis (including all available longitudinal data and allowing unequal numbers of repeated measurements) (Twisk (2004) Eur. J. Epidemiol. 19(8):769-776). All other statistics were analyzed using Graphpad Prism (Ja Jolla, Calif., USA). […]

C[C@]12C=CC(=O)C=C1CC[C@H]1[C@@H]3C[C@@H](O)[C@](O)(C(=O)CO)[C@@]3(C)C[C@H](O)[C@@]12F [triamcinolone]
spleen weight ([1]; 3 days after triamcinolone/saline administration): significantly reduced
decrease of absolute volume of spleen ([1]; after triamcinolone 5 mg/kg i.m., at d25, p=0.0011): 4 fold
luciferase expression in air pouch membrane [2]: luciferase expression was only observed
intra-articular AAV2 gene expression (luciferase, IVIS) [3]: increased gene expression
relative percentage of macrophages (CD68+, F4-80+) in the spleen ([4]; compared with saline): remained similar
percentage of macrophages in the synovium ([4]; pooled animals per group): decreased
intra-articular AAV5 gene expression (luciferase, IVIS) [5]: increased gene expression
arthritis activity (clinical score) ([6]; Example 2, up to 4 weeks): trend towards reduced arthritis activity
arthritis activity (clinical score) ([6]; Example 3, up till week 4): arthritis activity was lower
rAAV5.CMV.Fluc expression (luminescence) ([7]; agent given 48 hours before i.a. vector (triamcinolone 5 mg/kg i.m.; liposomal clodronate 5 μl/g i.v.), over 4 weeks): improved rAAV5.CMV.Fluc expression
luciferase expression (generalized estimating equations), compound added separately ([7]; followed 6 months): trend towards increased expression (not significant)
gene expression (luciferase) ([7]; triamcinolone 5 mg/kg locally (i.a.) 2 days prior to i.a. vector + empty capsids 5:1): enhancement of gene expression
gene expression (luciferase) ([7]; triamcinolone 5 mg/kg systemically (i.m.) 2 days prior to i.a. vector + empty capsids 5:1): enhancement of gene expression
